Test system: Corynespora cassiicola
Experiment: Corynespora cassiicola liquid culture growth inhibition (PDB, 96-well microtiter plate, photometric at 620 nm)
Type: cell-based
Conditions: 24 C, 3-4 days, compared to untreated control
Experimental: Conidia of the fungus from cryogenic storage were directly mixed into nutrient broth (PDB potato dextrose broth). A DMSO solution of the test compounds was placed into a microtiter plate (96-well format) and the nutrient broth containing the fungal spores was added to it. The test plates were incubated at 24 C and the inhibition of growth (% control of Corynespora cassiicola) was determined photometrically after 3-4 days at 620 nm. The activity of a compound is derived by comparing the inhibition of growth in the treated test solution to the growth in the untreated check. The concentration of the compounds was 6.7, 2.2, 0.74, 0.25, 0.082 and 0.027 ppm.

Cc1cccc2c1ncn2C1=NC(C)(C)C(F)(F)c2ccccc21 [Compound 1]
inhibition at 6.7 ppm: ≥ 70%

Cc1ccc2c(ncn2C2=NC(C)(C)C(F)(F)c3ccccc32)c1C [Compound 2]
inhibition at 6.7 ppm: ≥ 70%

Cc1c(F)ccc2c1ncn2C1=NC(C)(C)C(F)(F)c2ccccc21 [Compound 3]
inhibition at 6.7 ppm: ≥ 70%

Cc1ccc2c(ncn2C2=NC(C)(C)C(F)(F)c3c(F)cccc32)c1C [Compound 4]
inhibition at 6.7 ppm: ≥ 70%

Cc1cccc2c1ncn2C1=NC(C)(C)C(F)(F)c2cc(Cl)ccc21 [Compound 5]
inhibition at 6.7 ppm: ≥ 70%

CC1(C)N=C(n2cnc3c4c(ccc32)CCC4)c2ccccc2C1(F)F [Compound 6]
inhibition at 6.7 ppm: ≥ 70%

From US20230098569A1, “METHODS OF CONTROLLING OR PREVENTING INFESTATION OF PLANTS BY THE PHYTOPATHOGENIC MICROORGANISM CORYNESPORA CASSIICOLA” (SYNGENTA CROP PROTECTION AG, priority 2020, published 2023)
